Earlier results as cited in US20170232026A1, “PHARMACEUTICAL COMPOSITION IN […] FOR VETERINARY USE AS A PROMOTER SYSTEM AND BIO-ADHESIVE IN ANT[…], AND METHOD FOR THE PRODUCTION THEREOF” (UNIVERSIDAD NACIONAL AUTONOMA DE MEXICO, priority 2014, published 2017).

Question: Which results are given for `CC[C@H](C)[C@H]1O[C@]2(CC[C@@H]1C)C[C@@H]1C[C@@H](C/C=C(\C)[C@@H](O[C@H]3C[C@H](OC)[C@@H](O[C@H]4C[C@H](OC)[C@@H](O)[C@H](C)O4)[C@H](C)O3)[C@@H](C)/C=C/C=C3\CO[C@@H]4[C@H](O)C(C)=C[C@@H](C(=O)O1)[C@]34O)O2` [Ivermectin, 22, 23-dihydroavermectin B1a]?
Answer: solubility in ethanol at 95% (ethanol at 95%): soluble; solubility in methanol (methanol): soluble; solubility in water (water): insoluble
